Patent publication US10988542B2, “Chimeric antigen receptors with integrated controllable functions” (CELLECTIS, priority 2015, dated 2021)
Read-outs that look alike come from different tables or passages of the source.

Columns and labels:
MOLM13-Luc tumour cells = assay: Antitumor activity of inducible CD123 CAR+ T cells with AP21967 in NOG mice injected with MOLM13-Luc; type: in vivo; details: switch-on mcCAR-CD123 T cells IV plus AP21967 3 mg/kg/inj IP twice daily; FIG. 11
Procedure: The anti-tumor activity of human T-cells expressing a switch-on mcCAR-CD123 as described in Example 1, was assessed in NOG mice intravenously injected with MOLM13-Luc tumour cells.
To establish the MOLM13-Luc cell line, MOLM13 cells (DSMZ ACC 554) have been transduced with a lentivirus encoding the GFP and the firefly luciferase (amsbio LVP438-PBS). The GFP-positive cells have been selected with Neomycin (ref 10131-027, Gibco, Life Technologies, Saint-Aubin, France). MOLM13-Luc cells are grown in suspension at 37° C. in a humidified atmosphere (5% CO2, 95% air) into culture medium RPMI 1640 containing 2.05 mM L-glutamine (ref: BE12-702F, Lonza) supplemented with 15% fetal bovine serum (ref: 3302, Lonza, Verviers, Belgium), 100 U/mL Penicillin and 100 μg/mL Streptomycin (ref: DE17-602E, Lonza). The cells are counted in a hemocytometer and their viability is assessed by 0.25% trypan blue exclusion assay and are passed twice weekly (0.8 millions/mL) in fresh culture medium.
The day of injection to mice, frozen human T-cells transformed with the switch-on mcCAR-CD123 CAR are assessed to be within a range of 1-2.106 live cells per mL. […]
Mice were monitored daily with respect to their body weight measurements, clinical and mortality records, and treatment were recorded on Vivo Manager® database (Biosystemes, Dijon, France).

FKBP-FRB* scCAR = biological target: T1, FKBP-FRB* scCAR (Homo sapiens, UniProt P62942); assay: AP21967 switch-on scCAR surface detection (Fc-tagged recombinant CD123); type: cell-based; details: FKBP-FRB* domains; FIG. 7
T1 construct: expressed in transfected cells
T1 sequence (P62942 with tags, fused parts or gaps): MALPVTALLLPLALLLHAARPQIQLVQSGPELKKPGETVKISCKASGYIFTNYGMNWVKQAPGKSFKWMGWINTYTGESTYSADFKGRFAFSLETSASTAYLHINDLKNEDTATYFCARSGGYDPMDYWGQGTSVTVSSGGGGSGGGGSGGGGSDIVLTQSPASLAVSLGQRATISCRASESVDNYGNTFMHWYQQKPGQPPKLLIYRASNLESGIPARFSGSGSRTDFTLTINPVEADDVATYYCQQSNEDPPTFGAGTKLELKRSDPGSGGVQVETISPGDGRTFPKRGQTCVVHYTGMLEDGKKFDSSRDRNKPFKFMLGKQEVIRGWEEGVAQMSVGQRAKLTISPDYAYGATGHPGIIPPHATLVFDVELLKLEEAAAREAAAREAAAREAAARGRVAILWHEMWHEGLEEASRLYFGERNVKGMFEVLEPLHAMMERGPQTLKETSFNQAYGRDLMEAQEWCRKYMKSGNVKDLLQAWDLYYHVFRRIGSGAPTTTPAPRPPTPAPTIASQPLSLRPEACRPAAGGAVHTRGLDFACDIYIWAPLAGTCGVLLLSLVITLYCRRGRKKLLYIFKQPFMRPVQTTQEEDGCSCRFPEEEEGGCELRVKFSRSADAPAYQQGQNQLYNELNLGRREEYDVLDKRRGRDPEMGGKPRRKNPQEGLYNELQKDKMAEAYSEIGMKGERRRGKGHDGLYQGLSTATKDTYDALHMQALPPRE
From the text: The CAR extracellular domains (alpha chain) presented in example 2 were used as template to prepare plasmid DNA encoding single chain CARs (scCARs). The CD8 alpha transmembrane domain (SEQ ID NO: 32), the intracytoplasmic signalling region of the ζ-chain of the CD3-T cell receptor (SEQ ID NO: 28) and the signalling domains from co-stimulatory 4-1BB (CD137) (SEQ ID NO:31) were used to complete the CARs. scCARs were assemble by Golden Gate cloning using round of restriction and ligation, according to standard molecular biology procedures, leading to pCLS27572 (FKBP-FRB*) (SEQ ID NO:65), pCLS27603 (FKBP) (SEQ ID NO:66), pCLS27604 (FRB*) (SEQ ID NO:67). The respective amino acid sequences encoded by these constructs are shown in SEQ ID NOs: 68 to 70.
Primary labelling for the detection of the scCARs was performed with Fc-tagged recombinant CD123 (Lake Pharma) in PBS FBS2%, EDTA 2 mM, azide 0.1% for 20 min at 4° C. followed by a two washing steps with PBS FBS2% EDTA 2 mM azide 0.1%. […] Following the extracellular labelling, the cell viability was monitored using the efluor450 or efluor780 (ebioscience) in PBS for 20 min 4° C., followed by a washing step with PBS FBS2% EDTA 2 mM azide 0.1% and fixed in PFA 2%.

FKBP-FRB* mcCAR CD19 = biological target: T2, FKBP-FRB* mcCAR CD19 (Homo sapiens, UniProt P62942); assay: AP21967 switch-on: surface detection and dose response, CD19 targeting engineered CAR (Fab'2 detection); type: cell-based
T2 construct: expressed in transfected cells; host or cells: T cells, mRNA electroporation
T2 sequence (P62942 with tags, fused parts or gaps): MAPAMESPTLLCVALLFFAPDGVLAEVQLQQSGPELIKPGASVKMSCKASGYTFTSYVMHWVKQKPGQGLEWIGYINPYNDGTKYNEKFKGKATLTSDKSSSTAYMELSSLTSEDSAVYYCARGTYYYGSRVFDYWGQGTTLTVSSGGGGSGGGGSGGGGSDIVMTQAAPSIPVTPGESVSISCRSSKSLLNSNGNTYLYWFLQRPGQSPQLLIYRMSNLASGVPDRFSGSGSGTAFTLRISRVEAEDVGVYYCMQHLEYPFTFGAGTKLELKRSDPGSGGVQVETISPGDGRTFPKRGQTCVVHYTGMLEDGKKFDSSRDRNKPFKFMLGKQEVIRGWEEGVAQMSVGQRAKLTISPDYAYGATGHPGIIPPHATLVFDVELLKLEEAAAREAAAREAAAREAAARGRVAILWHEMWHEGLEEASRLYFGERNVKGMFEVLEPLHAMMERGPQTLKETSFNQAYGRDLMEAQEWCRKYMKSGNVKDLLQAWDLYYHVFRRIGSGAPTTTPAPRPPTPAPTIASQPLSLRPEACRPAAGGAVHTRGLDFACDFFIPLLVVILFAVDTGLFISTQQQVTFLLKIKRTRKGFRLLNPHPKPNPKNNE
T2 sequence (Q01362 with tags, fused parts or gaps partner limits assumed): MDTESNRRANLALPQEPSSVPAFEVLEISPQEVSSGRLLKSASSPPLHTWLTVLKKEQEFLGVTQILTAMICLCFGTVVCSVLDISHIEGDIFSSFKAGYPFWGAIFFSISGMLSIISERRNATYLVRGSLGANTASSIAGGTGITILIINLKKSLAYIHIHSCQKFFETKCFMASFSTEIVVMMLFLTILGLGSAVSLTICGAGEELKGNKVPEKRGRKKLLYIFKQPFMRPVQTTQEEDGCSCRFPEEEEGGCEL
T2 sequence (P30273 with tags, fused parts or gaps partner limits assumed): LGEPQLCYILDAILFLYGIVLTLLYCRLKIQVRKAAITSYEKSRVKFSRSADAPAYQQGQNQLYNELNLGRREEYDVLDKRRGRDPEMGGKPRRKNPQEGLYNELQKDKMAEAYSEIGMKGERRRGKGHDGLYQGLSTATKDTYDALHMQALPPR

Daudi CD19 positive = assay: Flow cytometry-based cytotoxicity assay of FKBP-FRB* mcCAR CD19 T-cells with AP21967; type: cell-based; details: for EC50: Homo sapiens, Daudi, dose response 0, 1, 5, 10, 33, 100 nM
Procedure: The cytolytic activity of engineered T-cells endowed with the FKBP-FRB* mcCAR CD19 from example 2, was assessed using a flow cytometry-based cytotoxicity assay. In this assay target cells presenting the CAR target antigen (Daudi CD19 positive) are labelled with CellTrace™ CFSE or and control cells with CellTrace™ violet.
The whole cell population was recovered, washed in PBS and labeled with eFluor780 viability marker before being fixed by 2% PFA. Fixed cells were analyzed by flow cytometry to determine their viability. Flow cytometry and data analysis were performed as described in example 1.
The level of targeted cell killing also correlated with the level of CAR detection (FIG. 9).

[1] = system: FKBP/FRB-mcCAR and FRB/FKBP-mcCAR constructs; assay: Rapamycin switch-on: surface detection of mcCAR with FKBP and FRB in the α-chain (flow cytometry); type: cell-based; details: rapamycin 100 nM, 20 h vs no rapamycin
From the text: All constructs originated from the pCLS24707 (SEQ ID NO: 38) which encode the α-chain (SEQ ID NO: 39), β-chain (SEQ ID NO: 40) and γ-chain (SEQ ID NO: 41) of the multichain CAR (mcCAR). The sequences coding for the FRB domain (SEQ ID NO: 2) and FKBP domain (SEQ ID NO: 1) were synthetized de novo (GeneCust). The scFV, hinge-transmembrane-intracytoplasmic alpha chain domain, the FRB and the FKBP were further amplified by PCR to generate golden gate assembly compatible fragments (SEQ ID NO: 42 to 45). In addition an FRB-FKBP and an FKBP-FRB fragment were generated (SEQ ID NO: 46 to 47) using a four-EAAAR-linker (SEQ ID NO: 19) or a −GS-4x-EAAAR-linker (SEQ ID NO: 20) and standard molecular biology procedures. […]
All individual chains were amplified by PCR using oligo pairs α-chain-F/α-chain-R, β-chain-F/β-chain-R and γ-chain-F/γ-chain-R (SEQ ID NO: 56 to 61) prior to mRNA synthesis. mRNA encoding the different α-chains, β-chain, γ-chain were in vitro transcribed from the PCR product and polyadenylated using the mMessage mMachine T7 Ultra kit (Life technologies) following the manufacturer's instructions. RNAs were purified with RNeasy columns (Qiagen), eluted in cytoporation medium T and quantified by measuring absorbance at 260 nm using a Nanodrop ND-1000 spectrophotometer. […]

FKBP-FRB* mcCAR = biological target: T3, FKBP-FRB* mcCAR (Homo sapiens, UniProt P62942); assay: Competition between AP21967 and tacrolimus, surface presentation of engineered CAR; type: cell-based; details: AP21967 10 nM fixed, tacrolimus 0-500 nM, 20 hours
T3 construct: expressed in transfected cells; host or cells: T cells, mRNA electroporation
T3 sequence (Q01362 with tags, fused parts or gaps partner limits assumed): as the sequence (Q01362 with tags, fused parts or gaps partner limits assumed) above
T3 sequence (P30273 with tags, fused parts or gaps partner limits assumed): as the sequence (P30273 with tags, fused parts or gaps partner limits assumed) above

## CO[C@H]1[C@@H](O)[C@H](C)C[C@H](C)/C=C/C=C/C=C(\C)[C@@H](c2c[nH]c3c(C)cccc23)C[C@@H]2CC[C@@H](C)[C@@](O)(O2)C(=O)C(=O)N2CCCC[C@H]2C(=O)O[C@H]([C@H](C)C[C@@H]2CC[C@@H](O)[C@H](OC)C2)C[C@H](O)[C@H](C)/C=C(\C)[C@H]1O [AP21967]
MOLM13-Luc tumour cells
  survival of the mice: increased the survival
FKBP-FRB* scCAR
  surface exposition of scCAR in presence of AP21967: improved surface exposition
FKBP-FRB* mcCAR CD19; FKBP-FRB* domains in α-chain, FIG. 4
  surface exposition of mcCAR in presence of AP21967: improved surface exposition
FKBP-FRB* mcCAR CD19; dose response, surface detection
  concentration of maximum signal induction: 100 nM
Daudi CD19 positive; 0, 1, 5, 10, 33, 100 nM, FIG. 5B
  level of target cell killing versus AP21967 dose: correlated
Daudi CD19 positive; AP21967 100 nM vs ethanol, E/T 20:1, 5 h, FIG. 5A
  cytolytic activity of CAR T cells in presence of AP21967: improved switched-on cytolytic activity
Daudi CD19 positive; FIG. 5B, read-out: EC50 of cytolytic capacity (approximate)
  EC50: ~0.01 µM
Daudi CD19 positive; FIG. 5B, read-out: EC50 of cytolytic capacity (value in parentheses)
  EC50: 0.0127 µM

## CO[C@H]1C[C@@H]2CC[C@@H](C)[C@@](O)(O2)C(=O)C(=O)N2CCCC[C@H]2C(=O)O[C@H]([C@H](C)C[C@@H]2CC[C@@H](O)[C@H](OC)C2)CC(=O)[C@H](C)/C=C(\C)[C@@H](O)[C@@H](OC)C(=O)[C@H](C)C[C@H](C)/C=C/C=C/C=C/1C [rapamycin]
[1]
  improvement of surface detection considering the MFI: up to 15 fold
  improvement of surface detection considering the percentage of positive cell: ≤ 3 fold

## C=CC[C@@H]1/C=C(\C)C[C@H](C)C[C@H](OC)[C@H]2O[C@@](O)(C(=O)C(=O)N3CCCC[C@H]3C(=O)O[C@H](/C(C)=C/[C@@H]3CC[C@@H](O)[C@H](OC)C3)[C@H](C)[C@@H](O)CC1=O)[C@H](C)C[C@@H]2OC [tacrolimus]
FKBP-FRB* mcCAR
  surface presentation/detection of the engineered CAR with increasing tacrolimus: decreased surface detection
FKBP-FRB* mcCAR; listed as Tacrolimus
  surface presentation/detection of the engineered CAR with increasing tacrolimus: possibility to tune the surface presentation
